The target in test [1] is T1, EP2 (Homo sapiens, UniProt P43116). The experiment in a line: EP2 cAMP assay. The test is classed as cell-based. The source says: (§1) U.S. patent application Ser. No. 11/553,143, filed on Oct. 26, 2006, incorporated by reference herein, describes the methods used to obtain the in vitro data in Table 1 below.
Test [2] addresses T1, EP2. The experiment in a line: EP2 Ca2+ signal assay. The test is classed as cell-based. As to conditions: for EP2 Ca2+ signal % PGE2: relative to PGE2.
Description: as §1

Test [3] concerns the target T1, EP2. The experiment in a line: EP2 binding assay.
Description: as §1

Test [4] addresses T2, EP4 (Homo sapiens, UniProt P35408). The experiment in a line: EP4 Ca2+ signal assay. As to conditions: for EP4 Ca2+ signal % PGE2: relative to PGE2. In kind it is cell-based.
Description: as §1

Test [5] has as its target T2, EP4. The experiment in a line: EP4 binding assay.
Description: as §1

A further test has as its target T3, EP1 (Homo sapiens, UniProt P34995).
T3 sequence (P34995 1-402): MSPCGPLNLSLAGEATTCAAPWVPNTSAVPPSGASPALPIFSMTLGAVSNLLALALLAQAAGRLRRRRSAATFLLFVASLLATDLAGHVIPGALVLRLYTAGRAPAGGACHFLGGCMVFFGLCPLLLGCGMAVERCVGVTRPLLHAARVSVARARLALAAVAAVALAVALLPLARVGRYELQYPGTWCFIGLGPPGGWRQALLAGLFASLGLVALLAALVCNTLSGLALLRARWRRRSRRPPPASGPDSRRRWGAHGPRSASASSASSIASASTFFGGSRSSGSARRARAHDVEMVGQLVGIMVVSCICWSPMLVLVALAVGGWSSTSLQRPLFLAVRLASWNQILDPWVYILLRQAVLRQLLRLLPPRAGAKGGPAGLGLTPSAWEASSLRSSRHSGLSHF
The experiment in a line: EP1 functional assay. In kind it is cell-based.
Description: as §1

The target of the next test is T4, EP3 (Homo sapiens, UniProt P43115).
T4 sequence (P43115 1-390): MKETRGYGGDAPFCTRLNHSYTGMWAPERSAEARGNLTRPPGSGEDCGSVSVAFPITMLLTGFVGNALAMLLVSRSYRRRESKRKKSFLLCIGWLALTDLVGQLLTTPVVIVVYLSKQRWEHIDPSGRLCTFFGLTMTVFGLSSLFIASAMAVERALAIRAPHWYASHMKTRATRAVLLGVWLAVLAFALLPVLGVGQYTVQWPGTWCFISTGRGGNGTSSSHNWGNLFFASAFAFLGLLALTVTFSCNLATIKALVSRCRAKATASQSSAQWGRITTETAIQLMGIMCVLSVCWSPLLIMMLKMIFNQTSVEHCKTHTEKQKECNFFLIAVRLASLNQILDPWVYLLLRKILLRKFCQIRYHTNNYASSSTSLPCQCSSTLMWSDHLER
The experiment in a line: EP3 functional assay. In kind it is cell-based.
Description: as §1

Another test concerns the target T5, TP (Homo sapiens, UniProt P21731).
T5 sequence (P21731 1-343): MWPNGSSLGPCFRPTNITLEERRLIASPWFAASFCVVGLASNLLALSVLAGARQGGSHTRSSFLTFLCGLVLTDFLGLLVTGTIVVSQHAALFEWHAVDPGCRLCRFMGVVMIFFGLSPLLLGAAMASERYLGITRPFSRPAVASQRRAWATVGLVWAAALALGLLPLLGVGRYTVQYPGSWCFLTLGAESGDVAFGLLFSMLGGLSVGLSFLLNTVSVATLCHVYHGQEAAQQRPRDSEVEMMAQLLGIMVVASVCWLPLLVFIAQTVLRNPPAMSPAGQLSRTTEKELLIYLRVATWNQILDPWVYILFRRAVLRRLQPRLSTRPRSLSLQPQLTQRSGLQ
The experiment in a line: TP functional assay. In kind it is cell-based.
Description: as §1

Read-outs that look alike come from different tables or passages of the source.

T2 sequence (P35408 whole entry): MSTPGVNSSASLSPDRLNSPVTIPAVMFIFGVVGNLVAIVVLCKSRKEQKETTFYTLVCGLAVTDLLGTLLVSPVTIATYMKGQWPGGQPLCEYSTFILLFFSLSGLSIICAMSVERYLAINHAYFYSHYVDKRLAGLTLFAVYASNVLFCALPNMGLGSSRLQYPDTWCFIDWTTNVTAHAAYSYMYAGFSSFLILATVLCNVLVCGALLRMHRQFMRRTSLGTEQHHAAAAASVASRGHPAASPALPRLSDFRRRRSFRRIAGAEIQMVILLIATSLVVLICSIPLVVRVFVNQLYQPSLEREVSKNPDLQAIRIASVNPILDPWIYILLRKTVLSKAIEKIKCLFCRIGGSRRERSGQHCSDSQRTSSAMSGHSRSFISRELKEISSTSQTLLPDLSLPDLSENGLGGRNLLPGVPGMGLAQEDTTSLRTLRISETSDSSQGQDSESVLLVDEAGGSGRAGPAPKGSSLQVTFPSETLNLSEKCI
T1 sequence (P43116 whole entry): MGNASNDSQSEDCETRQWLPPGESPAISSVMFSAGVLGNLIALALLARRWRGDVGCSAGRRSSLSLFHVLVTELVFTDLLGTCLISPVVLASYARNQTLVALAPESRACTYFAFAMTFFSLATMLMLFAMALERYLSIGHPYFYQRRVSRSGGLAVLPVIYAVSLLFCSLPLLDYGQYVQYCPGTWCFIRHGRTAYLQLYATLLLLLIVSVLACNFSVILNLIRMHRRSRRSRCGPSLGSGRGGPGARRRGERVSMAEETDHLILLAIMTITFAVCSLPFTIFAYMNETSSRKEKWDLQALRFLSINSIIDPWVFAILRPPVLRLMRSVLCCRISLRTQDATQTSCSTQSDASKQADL

As for `C[C@@H](O)CCC[C@H](O)/C=C/[C@H]1[C@H](O)CC(=O)[C@@H]1C/C=C\CCCC(=O)O` [AGN-191286], the EC50 amounted to 0.7 nM at EP2 [1]; 28 nM on EP2 [2]; 530 nM at EP2 [3]; 192 nM at EP4 [4]; 1510 nM on EP4 [5]; 308 nM at EP1. In addition, the EC50 at EP3 was 11 nM; at TP, 3010 nM. In addition, on EP2 [2], the “EP2 Ca2+ signal % PGE2” value was found to be 100%. On EP2 [3], the “EP2 Binding % Inh” value stood at 92%. Moreover, the “EP4 Ca2+ signal % PGE2” value at EP4 [4] was 100%. Also, the “EP4 Binding % Inh” value on EP4 [5] was 75%.

As for `C[C@@H](O)CCC[C@H](O)/C=C/[C@H]1[C@H](O)CC(=O)[C@@H]1CCCCCCC(=O)O` [AGN-191287], the EC50 stood at 0.9 nM at EP2 [1]; 34 nM on EP2 [2]; 487 nM at EP2 [3]; 193 nM at EP4 [4]; 1670 nM at EP4 [5]; 2760 nM on EP1. The EC50 at EP3 stood at 21 nM; at TP, 5270 nM. Further, the “EP2 Ca2+ signal % PGE2” value on EP2 [2] stood at 100%. Further, the “EP2 Binding % Inh” value at EP2 [3] was determined as 87%. In addition, the “EP4 Ca2+ signal % PGE2” value at EP4 [4] is on record as 102%. The “EP4 Binding % Inh” value on EP4 [5] is recorded as 75%.

For `C[C@@H](O)CCC[C@H](O)/C=C/[C@@H]1[C@@H](CCCc2ccc(C(=O)O)s2)[C@H](Cl)C[C@H]1O` [AGN-217510], the EC50 was found to be 0.06 nM at EP2 [1]; 7.4 nM at EP2 [2]; 66 nM at EP2 [3]; 145 nM on EP4 [4]; 2350 nM at EP4 [5]; 724 nM at EP1. Moreover, the midpoint of the response on EP3, the EC50, lay at 499 nM. Also, the “EP2 Ca2+ signal % PGE2” value at EP2 [2] is given as 106%. Besides, the “EP2 Binding % Inh” value on EP2 [3] was found to be 99%. Also, the “EP4 Ca2+ signal % PGE2” value at EP4 [4] stood at 121%. Further, the “EP4 Binding % Inh” value on EP4 [5] is 64%.

Take `COC(/C=C/[C@@H]1[C@@H](CCCc2ccc(C(=O)O)s2)[C@H](Cl)C[C@H]1O)CCC[C@@H](C)O` (stereo partly shown) [AGN-219309]: the EC50 was 25 nM at EP2 [1], 4020 nM on EP2 [2], 3310 nM on EP2 [3] and above 10000 nM at EP4 [5]. For the same compound, the “EP2 Ca2+ signal % PGE2” value at EP2 [2] (listed as 219309) came out at 63%. For the same compound, the “EP2 Binding % Inh” value at EP2 [3] (listed as 219309) was determined as 68%. Besides, the “EP4 Binding % Inh” value at EP4 [5] (listed as 219309) was determined as 9%.

In the case of `COC(/C=C/[C@@H]1[C@@H](CCCc2ccc(C(=O)O)s2)[C@H](Cl)C[C@H]1O)CCC[C@@H](C)O` (stereo partly shown) [AGN-219310], the EC50 was 3 nM at EP2 [1], 281 nM on EP2 [2], 171 nM on EP2 [3] and above 10000 nM at EP4 [5]. The “EP2 Ca2+ signal % PGE2” value on EP2 [2] (listed as 219310) is reported as 77%. In addition, at EP2 [3] (listed as 219310), the “EP2 Binding % Inh” value is recorded as 90%. Besides, the “EP4 Binding % Inh” value on EP4 [5] (listed as 219310) is given as 6%.

`C[C@H](O)CCC[C@H](O)/C=C/[C@@H]1[C@@H](CCCc2ccc(C(=O)O)s2)[C@H](Cl)C[C@H]1O` [AGN-221568] showed an EC50 at EP2 [1] of 1.4 nM. Also, at EP2 [2], the EC50 was found to be 20 nM and the “EP2 Ca2+ signal % PGE2” value is 91%. For the same compound, at EP2 [3], the EC50 was 381 nM and the “EP2 Binding % Inh” value is given as 91%. On EP4 [4], the EC50 was 35 nM and the “EP4 Ca2+ signal % PGE2” value worked out at 120%. Further, on EP4 [5], the response was half-maximal at 1280 nM (EC50) and the “EP4 Binding % Inh” value was 98%.

For orientation: EC50 means the concentration at which the effect is half-maximal. A higher EC50 goes with a less potent agent.
